Experimental data published in ChEMBL document CHEMBL1201862, “PubChem BioAssay data set” (2004).
The source made the active and inactive calls.

Assays:
[1] = target: T1, Carboxy-terminal domain RNA polymerase II polypeptide A small phosphatase 1 (Homo sapiens, UniProt Q9GZU7); test: inhibitors of CTDSP1, concentration-response testing, biochemical assay, absorbance-based, actives from ultra-high-throughput screening (AID 540297); format: functional
T1 sequence (Q9GZU7 whole entry): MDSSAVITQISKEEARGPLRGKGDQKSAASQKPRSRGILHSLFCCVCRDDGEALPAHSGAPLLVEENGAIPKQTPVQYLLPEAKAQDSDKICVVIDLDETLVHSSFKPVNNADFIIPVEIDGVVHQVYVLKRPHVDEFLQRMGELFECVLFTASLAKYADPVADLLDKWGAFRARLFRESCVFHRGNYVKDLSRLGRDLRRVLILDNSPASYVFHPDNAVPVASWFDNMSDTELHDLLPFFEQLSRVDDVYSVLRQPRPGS

[2] = target: T2, Low molecular weight phosphotyrosine protein phosphatase (Homo sapiens, UniProt P24666); format: functional; conditions: read-out: IC50_Mean;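 note: Dose-response confirmation assay measuring inhibition of LMPTP enzyme activity by fluorescence intensity read-out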
T2 sequence (P24666 whole entry): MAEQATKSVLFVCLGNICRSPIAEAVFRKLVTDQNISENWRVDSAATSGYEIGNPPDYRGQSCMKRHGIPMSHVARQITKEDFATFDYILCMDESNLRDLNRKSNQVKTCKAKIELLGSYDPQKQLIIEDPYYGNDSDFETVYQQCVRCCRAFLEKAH

[3] = target: Glucose-6-phosphate 1-dehydrogenase (Homo sapiens, UniProt P11413); test: human G6PD enzyme inhibitors, dose response, selectivity assay for P. falciparum G6PD inhibitor project, biochemical, fluorescence (AID 504792); format: functional
[4] = test system: H9c2; test: cells; format: functional, cell-based; conditions: Rattus norvegicus, H9c2, Myocardium;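 note: confirmatory concentration-response retest of ultra-high-throughput screening hits for modulation of myocardial damage; cell death induced by hydrogen peroxide oxidative stress; compound pretreatment for 60 min then peroxide exposure for 2 h; potency is for protecting the cells against peroxide damage rather than for killing them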
[5] = target: Nonstructural protein 1 (Influenza A virus, UniProt Q194T2); format: functional, Influenza A virus (A/California/07/2009(H1N1))
[6] = target: T3, Tyrosyl-DNA phosphodiesterase 2 (Homo sapiens, UniProt O95551); test: human TDP2 enzyme inhibitors, dose response, biochemical, epi absorbance, IC50 (AID 743297)
T3 sequence (O95551 whole entry): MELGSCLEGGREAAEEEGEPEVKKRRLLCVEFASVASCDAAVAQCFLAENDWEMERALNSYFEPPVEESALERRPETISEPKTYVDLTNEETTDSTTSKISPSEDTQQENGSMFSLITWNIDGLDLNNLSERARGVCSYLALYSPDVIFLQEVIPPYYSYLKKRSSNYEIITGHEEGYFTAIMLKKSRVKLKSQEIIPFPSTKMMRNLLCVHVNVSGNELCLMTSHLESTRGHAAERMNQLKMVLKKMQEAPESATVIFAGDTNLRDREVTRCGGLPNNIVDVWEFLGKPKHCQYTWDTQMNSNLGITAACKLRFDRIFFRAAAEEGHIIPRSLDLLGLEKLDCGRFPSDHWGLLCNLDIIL

[7] = target: Large T antigen (Simian virus 40, UniProt P03070); format: functional, Betapolyomavirus macacae;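 note: Confirmatory-stage PubChem screen for compounds that inhibit SV40 T antigen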
[8] = inhibitors of SNCA 5'UTR-driven reporter translation, confirmation, H4 neuroglioma cells, luminescence (AID 1988); format: functional, cell-based
[9] = inhibitors of firefly luciferase expression or activity, dose response, H4 neuroglioma cells, luminescence (AID 1990); format: functional, cell-based
[10] = Luminescence Cell-Based Dose Response HTS to Identify Inhibitors of 5'UTR Stem-Loop Driven Prion Protein mRNA Translation in H4 Neuroglioblastoma Cells. [Related pubchem assays: 1827 (Project Summary), 1813 (Primary HTS)]; format: functional
[11] = LGR2 antagonists, dose response, cell-based, HEK293, CRE-luciferase reporter, cherry pick, set 2 (AID 743343); format: functional;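 note: transfected cells were stimulated with diluted bursicon conditioned medium after compound addition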
[12] = HEK293 cell cytotoxicity, dose response, cytotoxicity control, plate reader, cherry-picked samples (AID 743446); format: functional, cell-based
[13] = A549 cell cytotoxicity, dose response, cytotoxicity control, plate reader, cherry-pick, antagonist series (AID 743412); format: functional, cell-based
[14] = target: T4, Corticotropin-releasing factor receptor 2/Corticotropin-releasing factor-binding protein (Homo sapiens, UniProt P24387+Q13324); test: activators of CRF receptor 2 with binding protein – uHTS hits, confirmation (AID 602473); format: functional; conditions: read-out: EC50_Mean
T4 sequence (Q13324 whole entry): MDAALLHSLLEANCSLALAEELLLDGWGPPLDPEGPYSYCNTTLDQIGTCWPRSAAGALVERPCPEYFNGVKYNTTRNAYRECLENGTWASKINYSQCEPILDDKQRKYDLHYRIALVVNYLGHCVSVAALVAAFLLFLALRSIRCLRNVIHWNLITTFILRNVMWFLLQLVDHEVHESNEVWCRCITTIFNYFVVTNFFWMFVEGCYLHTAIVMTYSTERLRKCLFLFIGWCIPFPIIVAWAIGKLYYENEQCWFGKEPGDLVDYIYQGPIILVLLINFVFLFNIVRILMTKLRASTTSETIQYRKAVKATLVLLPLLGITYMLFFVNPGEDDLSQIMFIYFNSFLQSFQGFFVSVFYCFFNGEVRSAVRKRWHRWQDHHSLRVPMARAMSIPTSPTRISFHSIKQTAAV
T4 sequence (P24387 whole entry): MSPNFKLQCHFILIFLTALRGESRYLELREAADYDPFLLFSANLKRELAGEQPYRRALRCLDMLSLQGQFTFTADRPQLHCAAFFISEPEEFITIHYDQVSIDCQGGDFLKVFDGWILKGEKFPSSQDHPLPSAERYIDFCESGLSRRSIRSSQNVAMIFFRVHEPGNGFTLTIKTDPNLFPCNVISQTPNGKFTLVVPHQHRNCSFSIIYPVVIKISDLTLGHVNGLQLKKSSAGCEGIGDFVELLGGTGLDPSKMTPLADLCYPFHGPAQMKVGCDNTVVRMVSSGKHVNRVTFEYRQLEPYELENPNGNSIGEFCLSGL

[15] = target: T4, Corticotropin-releasing factor receptor 2/Corticotropin-releasing factor-binding protein; test: Dose Response confirmation of uHTS hits for small molecule antagonists of the CRF-binding protein and CRF-R2 receptor complex.; format: functional; conditions: read-out: IC50_Mean
[16] = test system: P388/ADR; test: cells; format: functional; conditions: Mus musculus
[17] = test system: P388; test: cells; format: functional; conditions: Mus musculus
[18] = target: Cytochrome P450 2D6 (Homo sapiens, UniProt P10635);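 note: CYP2D6 member of a cytochrome P450 panel assay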
[19] = test system: SN12K1; test: cells; format: functional; conditions: Homo sapiens
[20] = intracellular Trypanosoma cruzi inhibitors in host cells – cell-based, plate reader, cherry-pick samples, set 3, dose response (AID 651818); format: functional;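 note: compounds incubated with infected cells for about four days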
[21] = HepG2 cell cytotoxicity, dose response, cytotoxicity control, plate reader, cherry-pick, antagonist series (AID 743416); format: functional, cell-based
[22] = MC4R antagonists, dose response, counter-screen for LGR2 antagonist project, cell-based, plate reader, cherry pick (AID 743444); format: functional;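 note: transfected HEK 293 cells stimulated with alpha-MSH peptide; potency of inhibitors of the alpha-MSH evoked signal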
[23] = Luminescent dose response cell-based high throughput screening assay for inhibitors of the Janus kinase 2 mutant JAK2V617F. [Related pubchem assays: 1446 (Primary screen.), 1521 (Confirmation assay.), 1486 (Counter screen.)]; format: functional

Chain of Nonstructural protein 1 (Q194T2 whole entry): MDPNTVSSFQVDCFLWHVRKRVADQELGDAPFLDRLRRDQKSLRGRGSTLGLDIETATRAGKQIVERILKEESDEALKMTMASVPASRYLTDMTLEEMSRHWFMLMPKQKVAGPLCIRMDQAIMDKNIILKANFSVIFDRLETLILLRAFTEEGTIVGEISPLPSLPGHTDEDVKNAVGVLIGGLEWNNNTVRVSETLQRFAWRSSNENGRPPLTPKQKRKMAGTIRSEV
Chain of Glucose-6-phosphate 1-dehydrogenase (P11413 whole entry): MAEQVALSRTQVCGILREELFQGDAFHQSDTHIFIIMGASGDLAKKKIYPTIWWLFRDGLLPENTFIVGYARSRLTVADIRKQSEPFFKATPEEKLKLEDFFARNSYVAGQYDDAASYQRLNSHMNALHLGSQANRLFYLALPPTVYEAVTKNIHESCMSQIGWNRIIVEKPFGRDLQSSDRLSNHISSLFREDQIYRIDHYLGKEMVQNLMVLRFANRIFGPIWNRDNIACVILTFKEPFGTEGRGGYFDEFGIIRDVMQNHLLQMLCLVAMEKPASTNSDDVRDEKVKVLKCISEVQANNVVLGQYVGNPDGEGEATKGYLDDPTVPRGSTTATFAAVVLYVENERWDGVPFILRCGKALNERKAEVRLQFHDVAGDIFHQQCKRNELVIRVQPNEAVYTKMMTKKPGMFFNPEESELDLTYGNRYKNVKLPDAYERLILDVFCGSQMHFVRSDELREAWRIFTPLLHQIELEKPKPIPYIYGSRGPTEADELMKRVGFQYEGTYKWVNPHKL
Chain of Cytochrome P450 2D6 (P10635 whole entry): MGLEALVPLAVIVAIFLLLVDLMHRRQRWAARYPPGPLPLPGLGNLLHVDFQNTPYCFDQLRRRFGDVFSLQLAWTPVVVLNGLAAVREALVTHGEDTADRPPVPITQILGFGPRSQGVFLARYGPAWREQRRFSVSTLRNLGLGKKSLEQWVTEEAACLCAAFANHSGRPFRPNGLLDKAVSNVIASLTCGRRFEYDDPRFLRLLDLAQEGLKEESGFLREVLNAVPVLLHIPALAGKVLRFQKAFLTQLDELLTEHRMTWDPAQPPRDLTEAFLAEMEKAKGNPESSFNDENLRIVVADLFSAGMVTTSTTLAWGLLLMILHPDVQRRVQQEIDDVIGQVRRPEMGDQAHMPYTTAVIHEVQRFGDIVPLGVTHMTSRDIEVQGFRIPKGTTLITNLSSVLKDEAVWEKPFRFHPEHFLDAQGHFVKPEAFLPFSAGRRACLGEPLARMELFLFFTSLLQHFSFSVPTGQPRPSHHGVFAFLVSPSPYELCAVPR
Chain of Large T antigen (P03070 whole entry): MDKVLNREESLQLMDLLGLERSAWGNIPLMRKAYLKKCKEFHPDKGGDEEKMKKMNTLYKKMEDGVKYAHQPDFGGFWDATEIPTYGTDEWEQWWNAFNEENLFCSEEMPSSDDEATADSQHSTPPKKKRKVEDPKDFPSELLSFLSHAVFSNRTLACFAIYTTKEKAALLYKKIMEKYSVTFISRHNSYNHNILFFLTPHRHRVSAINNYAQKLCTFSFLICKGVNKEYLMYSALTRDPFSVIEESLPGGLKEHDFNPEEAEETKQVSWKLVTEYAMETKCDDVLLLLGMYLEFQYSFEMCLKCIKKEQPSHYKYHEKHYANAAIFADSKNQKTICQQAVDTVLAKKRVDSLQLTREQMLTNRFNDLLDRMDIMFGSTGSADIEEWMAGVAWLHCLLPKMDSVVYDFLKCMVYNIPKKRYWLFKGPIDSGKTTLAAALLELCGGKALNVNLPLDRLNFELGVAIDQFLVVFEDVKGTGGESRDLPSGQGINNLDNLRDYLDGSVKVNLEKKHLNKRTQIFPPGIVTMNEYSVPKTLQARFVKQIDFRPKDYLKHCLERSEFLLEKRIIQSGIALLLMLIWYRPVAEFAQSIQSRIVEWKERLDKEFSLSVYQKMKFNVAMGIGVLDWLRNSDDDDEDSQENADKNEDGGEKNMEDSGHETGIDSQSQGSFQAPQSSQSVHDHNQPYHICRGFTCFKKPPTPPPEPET

Compound: O=C(Nc1ccc(S(=O)(=O)Nc2nccs2)cc1)c1nn(-c2ccc(F)cc2)ccc1=O
- IC50 [1]: 4.55 µM (active)
- IC50 [2]: 22.3 µM (inactive)

Compound: O=C(Nc1ccccn1)c1sc2cc([N+](=O)[O-])ccc2c1Cl
- IC50 [3]: > 80 µM (inactive)

Compound: O=C(Nc1nc(-c2ccccn2)cs1)c1cc(S(=O)(=O)N2CCOCC2)ccc1F
- IC50 [4]: 39.8 µM (inactive)
- IC50 [5]: 7.21 µM (active)

Compound: Cc1ccccc1OCC(=O)NCC(=O)OCC(=O)c1ccc([N+](=O)[O-])cc1
- IC50 [3]: > 80 µM (inactive)

Compound: CC1=NN(c2ccc(C)c(C)c2)C(=O)/C1=C/c1ccc2c(c1)n(C)c(=O)n2C
- IC50 [6]: > 128 µM (inactive)

Compound: Nc1ccc2[nH]c(CCCCCCCCc3nc4cc(N)ccc4[nH]3)nc2c1
- IC50 [7]: 18.7 µM (active)
- IC50 [2]: 11.4 µM (active)

Compound: CC1CN(c2ccccc2)NC1=O (configuration not stated)
- IC50 [3]: 41.2 µM (inactive)

Compound: O=C(CSc1n[nH]c(-c2ccccn2)n1)Nc1ccc(F)cc1
- EC50 [8]: > 120 µM (not active)
- EC50 [9]: 12.6 µM (active)
- EC50 [10]: 11.5 µM (active)
- IC50 [5]: 5.65 µM (active)

Compound: COc1ccc(-c2cc(-c3nnc(COC(=O)C4CC4)o3)c3ccccc3n2)cc1OC
- AC50 [11]: 43.2 µM (active)
- IC50 [4]: > 79 µM (inactive)
- AC50 [12]: > 52 µM (inactive)
- AC50 [13]: > 52 µM (inactive)

Compound: Cc1ccccc1N/C(SCc1cccc(Br)c1)=C(/C#N)C(N)=O
- IC50 [3]: > 80 µM (inactive)

Compound: CC(=O)Nc1cc2c(cc1[N+](=O)[O-])-c1ccccc1C2O (configuration not stated)
- IC50 [3]: > 80 µM (inactive)

Compound: Cc1cc(N2CCN(C(=O)Nc3ccccc3C#N)CC2)c2ccccc2n1
- IC50 [2]: 21.3 µM (inactive)

Compound: COC1(OC)C=CC(=O)C=C1NC(=O)c1ccccc1OC(C)=O
- IC50 [3]: > 80 µM (inactive)
- EC50 [14]: > 53 µM (inactive)
- IC50 [15]: > 47.1 µM (inactive)

Compound: CCN(CC)CC[n+]1ccc2c(C)c3[nH]c4ccc(O)cc4c3c(C)c2c1
- GI50 [16]: 2.21 µM (inactive)
- GI50 [17]: 0.012 µM (active)
- AC50 [18]: 6.31 µM (inconclusive)
- GI50 [19]: 0.948 µM (active)

Compound: CC1=C2C(O)C(C(C)C(=O)NC(C)C)CCC2(C)C=CC1=O (configuration not stated)
- GI50 [16]: > 100 µM (inactive)
- GI50 [17]: > 100 µM (inactive)
- GI50 [19]: > 100 µM (inactive)

Compound: CN(C)CC1CCCC(CN(C)C)C1=O (configuration not stated)
- GI50 [16]: 0.0164 µM (active)
- GI50 [17]: 0.0614 µM (active)
- GI50 [19]: 16.3 µM (inactive)

Compound: Cc1ccc(N2C(=O)C3CSCN3C2=O)cc1 (configuration not stated)
- GI50 [16]: > 100 µM (inactive)
- GI50 [17]: > 100 µM (inactive)
- GI50 [19]: > 100 µM (inactive)

Compound: C[C@H]1CN([C@@H](C)CO)C(=O)Cc2cc(NC(=O)Nc3ccc4c(c3)OCO4)ccc2O[C@H]1CN(C)Cc1ccc(C(F)(F)F)cc1
- AC50 [20]: 7.92 µM (active)

Compound: C[C@H](CO)N1C[C@H](C)[C@H](CN(C)Cc2ccc(-c3ccccc3)cc2)Oc2c(NC(=O)Nc3ccc(C(F)(F)F)cc3)cccc2C1=O
- AC50 [20]: 6 µM (active)

Compound: C[C@@H]1CN([C@H](C)CO)C(=O)c2cccc(NC(=O)Nc3ccc4c(c3)OCO4)c2O[C@@H]1CN(C)Cc1ccc(C(=O)Nc2ccccc2N)cc1
- AC50 [20]: 2.84 µM (active)

Compound: Cc1noc(C)c1S(=O)(=O)Nc1ccc2c(c1)CC(=O)N([C@H](C)CO)C[C@@H](C)[C@H](CN(C)Cc1ccc(Oc3ccccc3)cc1)O2
- AC50 [20]: 6.34 µM (active)

Compound: C[C@H](CO)N1C[C@H](C)[C@H](CN(C)Cc2ccncc2)Oc2ncc(C#CCC3CCCCC3)cc2C1=O
- AC50 [11]: 30 µM (active)
- AC50 [21]: 15.3 µM (active)
- AC50 [13]: 16.1 µM (active)
- AC50 [22]: 63.3 µM (active)

Compound: Cc1c(N/N=C2\C(=O)NC(=O)N(c3ccc(Br)cc3)C2=O)c(=O)n(-c2ccccc2)n1C
- IC50 [5]: 6.25 µM (active)

Compound: Oc1ccc(/C=N/N2CCN(C3c4ccccc4-c4ccccc43)CC2)cc1O
- IC50 [23]: 3.62 µM (active)

Compound: CC(=O)OC1CCC2(C)C3CCC4(C)C(c5ccc(=O)oc5)CC5OC54C3CCC2(O)C1 (configuration not stated)
- GI50 [16]: > 200 µM (inactive)
- GI50 [17]: > 200 µM (inactive)
- GI50 [19]: 0.948 µM (active)

Compound: CCOC(=O)Nc1ccc2c(c1)N(C(=O)CCN(CC)CC)c1ccccc1S2 [ETHACIZINE]
- GI50 [17]: 9.46 µM (inactive)
- GI50 [19]: 33.6 µM (inactive)
